Assay results reported in ChEMBL document CHEMBL4334492, “Nectriatide, a Potentiator of Amphotericin B Activity from Nectriaceae sp. BF-0114” (J Nat Prod, 2019).
Values after ≈ are worked out from the molar mass of the structure shown. Non-standard residues stand in square brackets, D forms with d. Residues, ends and D or L forms follow the SMILES beside them. *: point of attachment. NMeY = CN[C@@H](Cc1ccc(O)cc1)C(=O)O; 2Abz = Nc1ccccc1C(=O)O; tBu = CC(C)(C)*

What was measured:
HEK293 = experiment: Cytotoxicity against human HEK293 cells assessed as reduction in cell viability after 24 hrs by MTT assay; type: cell-based; conditions: HEK293, 24 h
Candida albicans [1] = experiment: Potentiation of amphotericin-induced antifungal activity against Candida albicans ATCC 90029 assessed as fold reduction in amphotericin MIC at 32 ug/ml after 24 hrs by broth microdilution method relative to amphotericin MIC alone; type: functional
Candida albicans [2] = experiment: Potentiation of amphotericin-induced antifungal activity against Candida albicans ATCC 90029 assessed as amphotericin MIC at 16 ug/ml after 24 hrs by broth microdilution method (reference value: 0.5 ug/ml); type: functional; conditions: ATCC 90029, 24 h
Candida albicans [3] = experiment: Potentiation of amphotericin-induced antifungal activity against Candida albicans ATCC 90029 assessed as fold reduction in amphotericin MIC at 16 ug/ml after 24 hrs by broth microdilution method relative to amphotericin MIC alone; type: functional
Candida albicans [4] = experiment: Potentiation of amphotericin-induced antifungal activity against Candida albicans ATCC 90029 assessed as fold reduction in amphotericin MIC at 8 ug/ml after 24 hrs by broth microdilution method relative to amphotericin MIC alone; type: functional
Candida albicans [5] = experiment: Potentiation of amphotericin-induced antifungal activity against Candida albicans ATCC 90029 assessed as amphotericin MIC at 32 ug/ml after 24 hrs by broth microdilution method (reference value: 0.5 ug/ml); type: functional; conditions: ATCC 90029, 24 h
Candida albicans [6] = experiment: Potentiation of amphotericin-induced antifungal activity against Candida albicans ATCC 90029 assessed as amphotericin MIC at 8 ug/ml after 24 hrs by broth microdilution method (reference value: 0.5 ug/ml); type: functional; conditions: ATCC 90029, 24 h

| MIC (Candida albicans [2]) [µg/mL] | MIC (Candida albicans [5]) [µg/mL] | MIC (Candida albicans [6]) [µg/mL] | Compound | IC50 (HEK293) [µg/mL] | Ratio (Candida albicans [1]) | Ratio (Candida albicans [3]) | Ratio (Candida albicans [4]) |
| --- | --- | --- | --- | --- | --- | --- | --- |
|  |  |  | C[C@@H]1[C@H](O)[C@@H](C)/C=C/C=C/C=C/C=C/C=C/C=C/C=C/[C@H](O[C@@H]2O[C@H](C)[C@@H](O)[C@H](N)[C@@H]2O)C[C@@H]2O[C@](O)(C[C@@H](O)C[C@@H](O)[C@H](O)CC[C@@H](O)C[C@@H](O)CC(=O)O[C@H]1C)C[C@H](O)[C@H]2C(=O)O [AMPHOTERICIN B] | 15 (≈ 16.2 µM) |  |  |  |
| 0.063 | 0.031 | 0.13 | CC(C)[C@H]1NC(=O)[C@H](C)NC(=O)c2ccccc2NC(=O)[C@H](Cc2ccc(O)cc2)N(C)C1=O |  | 16 | 8 | 4 |
| 0.13 | 0.13 | 0.25 | CC(C)[C@H](NC(=O)[C@H](C)NC(=O)c1ccccc1N)C(=O)N(C)[C@@H](Cc1ccc(OC(C)(C)C)cc1)C(=O)O (H-[2Abz]AV[NMeY](tBu)-OH) |  | 4 | 4 | 2 |
|  | 0.25 |  | CN[C@@H](Cc1ccc(OC(C)(C)C)cc1)C(=O)Nc1ccccc1C(=O)N[C@@H](C)C(=O)O |  | 2 |  |  |
| 0.063 | 0.031 | 0.13 | CN[C@@H](Cc1ccc(OC(C)(C)C)cc1)C(=O)Nc1ccccc1C(=O)N[C@@H](C)C(=O)N[C@H](C(=O)O)C(C)C (H-[NMeY](tBu)[2Abz]AV-OH) |  | 16 | 8 | 4 |

| Compound | MIC (Candida albicans [2]) [µg/mL] | MIC (Candida albicans [5]) [µg/mL] | MIC (Candida albicans [6]) [µg/mL] | IC50 (HEK293) [µg/mL] | Ratio (Candida albicans [1]) | Ratio (Candida albicans [3]) | Ratio (Candida albicans [4]) |
| --- | --- | --- | --- | --- | --- | --- | --- |
| Nc1ccccc1C(=O)O [ANTHRANILIC ACID] |  | 0.5 |  |  | 1 |  |  |
